From US20220396819A1, “METHOD FOR PRODUCING PEPTIDE HAVING PHYSIOLOGICAL ACTIVITY, AND PEPTIDE COMPRISING SHORT LINKER” (priority 2019, published 2022)
Positions of bridges follow the written chain, without caps; N, C: chain ends. No end group written: not given here.

Key:
Format in all cases: cell-based
[1] = system: receptor tyrosine kinase (RTK); test: RTK specificity, Proteome Profiler Human Phospho-RTK Array Kit, HEK293E cells; settings: 200 ng/mL peptide or 100 ng/mL HGF, 10 minutes, FIG. 10
Description: The receptor tyrosine kinase (RTK) specificity of the HGF-PAS dimer peptide was evaluated using Proteome Profiler Human Phospho-RTK Array Kit (R&D Systems).
HEK293E cells confluent in a 10 cm cell culture dish were starved by culturing for 24 hours in D-MEM medium containing 0.5% FBS (Thermo Fisher Scientific) and penicillin-streptomycin (Nacalai Tesque). The starved HEK293E cells were stimulated with 200 ng/mL AET-PAS-aMD4dY-PEG11 for 10 minutes. As a positive control, 100 ng/mL HGF was similarly stimulated for 10 minutes. As a negative control, PBS was added and stimulated for 10 minutes (Mock group). After removing the medium and washing the cells once with PBS, the cells were lysed by adding 1 mL of Lysis buffer 17 containing a Protease inhibitor cocktail (Nacalai Tesque). The lysate solution was centrifuged at 14,000 G for 5 minutes to obtain the supernatant as a lysate.
The lysate was analyzed using Proteome Profiler Human Phospho-RTK Array Kit. Molecular Imager ChemiDoc XRS System (Bio-Rad) was used to detect chemiluminescence.

[2] = system: HuCCT1 cells; test: Cell migration activity, Transwell, HuCCT1 cells; settings: 100 ng/mL HGF or 200 ng/mL peptide, 24 hours, FIGS. 13, 14
Description: HGF has been reported to promote cell migration ability by activating Met (K. Ito, et al. Nat. Commun. 6, 6373, 2015). Therefore, HuCCT1 cell culture was used to evaluate whether the HGF-PAS dimer peptide had the same activity of promoting cell migration as HGF.
To Transwell inserts for 24-well (pore size 3.0 m, Corning), 20,000 HuCCT1 cells suspended in low serum medium (RPMI 1640 medium with 0.5% FBS) were added. A low serum medium containing 100 ng/mL HGF or 200 ng/mL AET-PAS-aMD4dY-PEG11 was added to the lower layer. After culturing for 24 hours under the conditions of 37° C. and 5% CO2, the Transwell inserts were washed 3 times with PBS and cell-fixed and stained with methanol containing 0.5% Crystal Violet (Nacalai Tesque) for 10 minutes. Immobilized and stained Transwell inserts were washed with distilled water. The cells inside the inserts were removed with a scraper. The cells migrated to the outside of the inserts and stained were photographed in the bright field observation mode of a BZ-X microscope (Keyence).
The migration ability was calculated as (area of stained region)/(insert area) and as a relative value (Relative migration efficiency) to the value of the non-added group (Mock) (N=2).

[3] = molecular target: T1, Met (Homo sapiens, UniProt P08581); test: Met activation ability, SRE luciferase assay in HEK293E cells (HGF-Erk-SRE pathway); settings: for signal activation ability, dimer versus monomer: Example 43, FIG. 76
T1 construct: endogenous in cells; host or cells: HEK293E
Description: (§1) The Met activation ability of the HGF-PAS dimer peptide was evaluated by luciferase assay. To 25 μL of Opti-MEM medium (Thermo Fisher Scientific), 0.6 μL of Attractene Transfection Reagent (QIAGEN) was added, and the mixture was incubated at room temperature for 5 minutes. To the above mixed solution, a mixed solution of 25 μL of Opti-MEM and 1 μL of SRE reporter vector (QIAGEN) was added, and the mixture was incubated at room temperature for 20 minutes. This mixed solution was added to a 96-well plate, over which 40,000 cell/well HEK293E cells were seeded and incubated overnight in a 5% CO2 incubator at 37° C. After transfection, all culture supernatant was removed, 100 μL of Opti-MEM medium (evaluation basal medium) containing 0.5% FBS (Thermo Fisher Scientific), 1% non-essential amino acid solution (Thermo Fisher Scientific), and penicillin-streptomycin (Nacalai Tesque) was added, and incubation was performed at 37° C. for 4 hours, and thereby the cells were starved.
To the evaluation basal medium, 0 to 200 ng/mL HGF was added, or 0 to 800 ng/mL AET-PAS-aMD4dY-PEG11, AET-PAS-aMD4-PEG11, or AET-PAS-aMD4-PEG3 was added, or a culture supernatant containing PAS-aMD4dY-PEG11, PAS-aMD4-PEG11, or PAS-aMD4-PEG3 was added so as to be diluted 10-fold with respect to the medium, and the evaluation basal medium was added in an amount of 100 μL to the cells. The cells were stimulated by culturing overnight in a 5% CO2 incubator at 37° C.
The signal intensities were detected using Dual-Luciferase Reporter Assay System (Promega). The medium supernatant in an amount of 100 μL was removed, 50 μL of Glo reagent was added, and the cells were lysed for 10 minutes at room temperature. The luminescence of Firefly luciferase emitted from the cell lysate solution was detected with a plate reader to quantify the activation of the HGF-Erk-SRE pathway. Subsequently, 50 μL of Glo & Stop reagent solution was added, and after 10 minutes, the luminescence of the internal standard Renilla luciferase was detected to quantify the number of cells. The signal activity of each sample was quantified as SRE activity=(Firefly luciferase luminescence intensity)/(Renilla luciferase luminescence intensity). The relative signal activity values for the samples without addition of the evaluation compound were determined and used as relative receptor activity.
as §1, with “peptide linker variant” for “peptide”, “0.6 L” for “0.6 μL”
To the evaluation basal medium, 0 to 100 ng/mL HGF was added, or a culture supernatant containing AET-aMD4dY-PAS8, AET-aMD4dY-PAS22 (the same molecule as AET-PAS-aMD4dY-PEG11), AET-aMD4dY-PAS49, AET-aMD4dY-PAS100, AET-aMD4dY-PAS200, AET-aMD4dY-GS15, or AET-aMD4dY-GS22 was added to the medium so as to be diluted at a predetermined ratio, and the evaluation basal medium was added in an amount of 100 μL to the cells. The cells were stimulated by culturing overnight in a 5% CO2 incubator at 37° C.
The Met activation ability of the stabilized HGF-PAS dimer peptide was evaluated by luciferase assay. […]

T1 sequence (P08581 25-1390): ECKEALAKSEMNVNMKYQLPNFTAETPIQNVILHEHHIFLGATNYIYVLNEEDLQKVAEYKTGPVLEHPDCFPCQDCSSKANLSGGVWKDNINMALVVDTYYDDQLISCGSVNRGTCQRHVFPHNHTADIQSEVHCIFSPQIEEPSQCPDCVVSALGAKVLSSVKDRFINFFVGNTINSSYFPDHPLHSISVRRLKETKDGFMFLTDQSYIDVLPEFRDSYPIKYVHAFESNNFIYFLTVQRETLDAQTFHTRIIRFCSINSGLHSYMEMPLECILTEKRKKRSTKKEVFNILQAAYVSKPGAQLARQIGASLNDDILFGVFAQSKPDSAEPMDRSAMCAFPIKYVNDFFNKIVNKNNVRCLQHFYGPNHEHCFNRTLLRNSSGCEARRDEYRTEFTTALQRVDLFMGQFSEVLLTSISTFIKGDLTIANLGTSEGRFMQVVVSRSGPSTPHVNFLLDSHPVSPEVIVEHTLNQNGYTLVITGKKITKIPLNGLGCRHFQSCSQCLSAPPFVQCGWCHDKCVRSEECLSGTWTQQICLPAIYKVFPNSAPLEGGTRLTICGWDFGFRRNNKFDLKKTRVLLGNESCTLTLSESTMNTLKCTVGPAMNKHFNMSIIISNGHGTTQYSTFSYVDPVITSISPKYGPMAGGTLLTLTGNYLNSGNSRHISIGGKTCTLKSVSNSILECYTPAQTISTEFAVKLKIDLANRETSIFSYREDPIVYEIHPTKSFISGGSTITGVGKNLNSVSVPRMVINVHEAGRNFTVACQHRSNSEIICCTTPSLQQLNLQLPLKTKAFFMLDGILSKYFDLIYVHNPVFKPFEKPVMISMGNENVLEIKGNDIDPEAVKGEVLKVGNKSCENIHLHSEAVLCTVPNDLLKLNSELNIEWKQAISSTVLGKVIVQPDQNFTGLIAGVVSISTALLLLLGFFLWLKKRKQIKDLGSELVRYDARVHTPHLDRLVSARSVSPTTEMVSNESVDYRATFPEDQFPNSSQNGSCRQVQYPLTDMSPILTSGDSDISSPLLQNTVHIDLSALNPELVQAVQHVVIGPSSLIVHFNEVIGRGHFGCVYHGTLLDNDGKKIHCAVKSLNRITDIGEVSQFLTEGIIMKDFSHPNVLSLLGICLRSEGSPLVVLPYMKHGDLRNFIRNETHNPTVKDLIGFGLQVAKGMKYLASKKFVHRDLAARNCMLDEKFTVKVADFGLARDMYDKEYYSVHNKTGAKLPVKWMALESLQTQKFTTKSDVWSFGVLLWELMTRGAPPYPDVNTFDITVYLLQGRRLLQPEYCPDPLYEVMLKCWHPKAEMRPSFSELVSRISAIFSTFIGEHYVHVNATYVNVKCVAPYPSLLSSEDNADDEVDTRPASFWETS

Row | Substance | RTK phosphorylation (specificity) [1] | cell migration [2] | maximum activity compared with HGF ([3]; Example 6, AET form 0 to 800 ng/mL, PAS form culture supernatant diluted 10-fold) | signal activation ability, dimer versus monomer [3]
1 | AETCRQFNRRTHEVWNLDCGAAPAAPAPAAPAAPAPAAPAAPGCRQFNRRTHEVWNLDC (disulfide 4-19, 44-59; also: PEG11) [AET-PAS-aMD4dY-PEG11] | Met was specifically phosphorylated | promoted cell migration | comparable to 100 ng/mL HGF | showed signal activation ability
2 | HGF: recombinant human HGF (rhHGF, R&D Systems) | Met was specifically phosphorylated | proportion of the cells migrating to the lower part of the Transwell inserts increased | – | showed signal activation ability
